Test results: patent US20250340561A1, “QUINAZOLINE COMPOUND FOR INDUCING DEGRADATION OF G12D MUTANT KRAS PROTEIN” (Astellas Pharma Inc., priority 2021, published 2025)
Where two headings read alike, the source gives them in different places.

What was measured:
[1] = system: phosphorylation of ERK (Thr202/Tyr204); assay: Test Example 2: ERK phosphorylation inhibition action in AsPC-1, Cell ELISA; assay type: cell-based, human; conditions: AsPC-1 cells, 0% = 1 μM trametinib
Method in brief: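 AsPC-1 cells (KRAS G12D) treated 24 h with compound (6 points, 10 μM to 3.0 nM final) in RPMI 1640/10% FBS. Fixed with glyoxal; pERK Thr202/Tyr204 detected by In-Cell ELISA with 800 nm fluorescence. IC50 by Sigmoid-Emax regression, with DMSO set to 100% and 1 μM trametinib to 0%.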

[2] = system: human G12D mutant KRAS-positive pancreatic cancer line AsPC-1; assay: Test Example 3: non-anchorage-dependent cell growth inhibition, spheroid 3D cell culture; assay type: cell-based; conditions: AsPC-1 spheroid 3D culture, 6 days, CellTiter Glo 2.0
Method in brief: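 AsPC-1 cells were grown as spheroids (5×10^2 cells/well, low-adhesion round-bottom plates). Next day they were treated with compound at 6 final concentrations from 10 μM to 3.0 nM for 6 days at 37 °C, and viability was read by CellTiter Glo luminescence. IC50 came from Sigmoid-Emax nonlinear regression, normalized between DMSO-treated and cell-free wells.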

[3] = Homo sapiens, ASPC1, 24 h, read-out: IC50
[4] = Homo sapiens, ASPC1, 144 h, read-out: IC50

Row | IC50 [1, 3] | IC50 [2, 4] | Compound | IC50 ([1]; Homo sapiens, ASPC1, 24 h) | IC50 ([2]; Homo sapiens, ASPC1, 144 h) | also measured
1 | – | – | Cc1ncsc1-c1ccc([C@H](CO)NC(=O)[C@@H]2C[C@@H](O)CN2C(=O)[C@H](C(C)C)n2cc(-c3ccc(COc4c(-c5c(C)c(F)cc6[nH]ncc56)c(C5CC5)cc5c(N6C[C@@H]7C[C@H]6CN7)nc(OC6CCOCC6)nc45)cc3)nn2)cc1 [Example 8, (4R)-1-[(2S)-2-(4-{4-[({6-cyclopropyl-4-[(1S,4S)-2,5-diazabicyclo[2.2.1]heptan-2-yl]-7-(6-fluoro-5-methyl-1H-indazol-4-yl)-2-[(oxan-4-yl)oxy]quinazolin-8-yl}oxy)methyl]phenyl}-1H-1,2,3-triazol-1-yl)-3-methylbutanoyl]-4-hydroxy-N-{(1R)-2-hydroxy-1-[4-(4-methyl-1,3-thiazol-5-yl)phenyl]ethyl}-L-prolinamide] | – | – | IC50 ([1]; 24 hours, read-out: IC50): 15 nM; IC50 ([2]; read-out: IC50): 23 nM
2 | – | – | Cc1ncsc1-c1ccc([C@H](CO)NC(=O)[C@@H]2C[C@@H](O)CN2C(=O)[C@H](C(C)C)n2cc(-c3ccc(COc4c(-c5c(C)c(F)cc6[nH]ncc56)c(C5CC5)cc5c(N6C[C@@H]7C[C@H]6CN7)nc(OC[C@H](C)N6CCOCC6)nc45)cc3)nn2)cc1 [Example 65] | 11 nM | 45 nM | –
3 | – | – | Cc1ncsc1-c1ccc([C@H](CO)NC(=O)[C@@H]2C[C@@H](O)CN2C(=O)[C@H](C(C)C)n2cc(-c3ccc(COc4c(-c5c(C)c(F)cc6[nH]ncc56)c(C5CC5)cc5c(N6C[C@@H]7C[C@H]6CN7)nc(OC[C@@H]6CCOC6)nc45)cc3)nn2)cc1 [Example 53] | – | – | IC50 ([1]; 24 hours): 10 nM; IC50 [2]: 23 nM
4 | – | – | Cc1c(F)cc2[nH]ncc2c1-c1c(C2CC2)cc2c(N3C[C@@H]4C[C@H]3CN4)nc(OC3CCOCC3)nc2c1OCc1ccc(-c2cn([C@H](C(=O)N3C[C@H](O)C[C@H]3C(=O)N[C@@H](CO)c3ccc(F)cc3)C(C)C)nn2)cc1 [Example 13] | 29 nM | 74 nM | –
5 | – | – | Cc1ncsc1-c1ccc(C2(NC(=O)[C@@H]3C[C@@H](O)CN3C(=O)[C@@H](NC(=O)c3ccc(COc4c(-c5c(C)c(F)cc6[nH]ncc56)c(C5CC5)cc5c(N6C[C@@H]7C[C@H]6CN7)nc(OC6CCOCC6)nc45)cc3)C(C)C)CC2)cc1 [Example 1] | 89 nM | 190 nM | –
6 | – | – | Cc1c(F)cc2[nH]ncc2c1-c1c(C2CC2)cc2c(N3C[C@@H]4C[C@H]3CN4)nc(OC3CCOCC3)nc2c1OCc1ccc(-c2cn([C@H](C(=O)N3C[C@H](O)C[C@H]3C(=O)N[C@@H](CO)c3ccc(Br)cc3)C(C)C)nn2)cc1 [Example 12] | 37 nM | 112 nM | –
7 | 16 nM | 26 nM | CO[C@@H](C)COc1nc(N2C[C@@H]3C[C@H]2CN3)c2cc(C3CC3)c(-c3c(C)c(F)cc4[nH]ncc34)c(OCc3ccc(-c4cn([C@H](C(=O)N5C[C@H](O)C[C@H]5C(=O)N[C@@H](CO)c5ccc(-c6ocnc6C)cc5)C(C)C)nn4)cc3)c2n1 [Example 72] | – | – | –
8 | 12 nM | 21 nM | CCn1nccc1-c1ccc([C@H](CO)NC(=O)[C@@H]2C[C@@H](O)CN2C(=O)[C@H](C(C)C)n2cc(-c3ccc(COc4c(-c5c(C)c(F)cc6[nH]ncc56)c(C5CC5)cc5c(N6C[C@@H]7C[C@H]6CN7)nc(OC[C@H](C)OC)nc45)cc3)nn2)cc1 [Example 70] | – | – | –
9 | 38 nM | 76 nM | COC[C@H](CN1CCOCC1)Oc1nc(N2C[C@@H]3C[C@H]2CN3)c2cc(C3CC3)c(-c3c(C)c(F)cc4[nH]ncc34)c(OCc3ccc(-c4cn([C@H](C(=O)N5C[C@H](O)C[C@H]5C(=O)N[C@@H](CO)c5ccc(-c6scnc6C)cc5)C(C)C)nn4)cc3)c2n1 [Example 55] | – | – | –
10 | – | – | Cc1ncsc1-c1ccc([C@H](CO)NC(=O)[C@@H]2C[C@@H](O)CN2C(=O)[C@H](C(C)C)n2cc(-c3ccc(COc4c(-c5c(C)c(F)cc6[nH]ncc56)c(C5CC5)cc5c(N6C[C@@H]7C[C@H]6CN7)nc(O[C@H]6CCN(CCO)C6)nc45)cc3)nn2)cc1 [Example 31] | 194 nM | 321 nM | –
11 | – | – | Cc1c(F)cc2[nH]ncc2c1-c1c(C2CC2)cc2c(N3C[C@@H]4C[C@H]3CN4)nc(OC3CCOCC3)nc2c1OCc1ccc(-c2cn([C@H](C(=O)N3C[C@H](O)C[C@H]3C(=O)N[C@@H](CO)c3ccccc3F)C(C)C)nn2)cc1 [Example 30] | 185 nM | 323 nM | –
12 | – | – | COC[C@H](C)Oc1nc(N2C[C@@H]3C[C@H]2CN3)c2cc(C3CC3)c(-c3c(C)c(F)cc4[nH]ncc34)c(OCc3ccc(-c4cn([C@H](C(=O)N5C[C@H](O)C[C@H]5C(=O)N[C@@H](CO)c5ccc(-c6scnc6C)cc5)C(C)C)nn4)cc3)c2n1 [Example 54] | 18 nM | 24 nM | –
13 | 36 nM | 79 nM | Cc1c(F)cc2[nH]ncc2c1-c1c(C2CC2)cc2c(N3C[C@@H]4C[C@H]3CN4)nc(OC3CCOCC3)nc2c1OCc1ccc(-c2cn([C@H](C(=O)N3C[C@H](O)C[C@H]3C(=O)N[C@@H](CO)c3ccc(N4CCOC4=O)cc3)C(C)C)nn2)cc1 [Example 20, (4R)-1-[(2S)-2-(4-{4-[({6-cyclopropyl-4-[(1S,4S)-2,5-diazabicyclo[2.2.1]heptan-2-yl]-7-(6-fluoro-5-methyl-1H-indazol-4-yl)-2-[(oxan-4-yl)oxy]quinazolin-8-yl}oxy)methyl]phenyl}-1H-1,2,3-triazol-1-yl)-3-methylbutanoyl]-4-hydroxy-N-{(1R)-2-hydroxy-1-[4-(2-oxo-1,3-oxazolidin-3-yl)phenyl]ethyl}-L-prolinamide] | – | – | –
14 | – | – | Cc1ncsc1-c1ccc([C@H](CO)NC(=O)[C@@H]2C[C@@H](O)CN2C(=O)[C@H](C(C)C)n2cc(-c3ccc(COc4c(-c5c(C)c(F)cc6[nH]ncc56)c(C5CC5)cc5c(N6C[C@@H]7C[C@H]6CN7)nc(O[C@@H](C)[C@H](C)O)nc45)cc3)nn2)cc1 [Example 42] | 22 nM | 46 nM | –
15 | 67 nM | 185 nM | Cc1ncsc1-c1ccc([C@@H](NC(=O)[C@@H]2C[C@@H](O)CN2C(=O)[C@H](C(C)C)n2cc(-c3ccc(COc4c(-c5c(C)c(F)cc6[nH]ncc56)c(C5CC5)cc5c(N6C[C@@H]7C[C@H]6CN7)nc(OC6CCOCC6)nc45)cc3)nn2)C(F)F)cc1 [Example 16] | – | – | –
16 | 114 nM | 360 nM | Cc1ncsc1-c1ccc([C@H](CO)NC(=O)[C@@H]2C[C@@H](O)CN2C(=O)[C@H](C(C)C)n2cc(-c3ccc(COc4c(-c5c(C)c(F)cc6[nH]ncc56)c(C5CC5)cc5c(N6C[C@@H]7C[C@H]6CN7)nc(NCCO)nc45)cc3)nn2)cc1 [Example 66] | – | – | –
17 | – | – | Cc1ncsc1-c1ccc([C@H](CO)NC(=O)[C@@H]2C[C@@H](O)CN2C(=O)[C@H](C(C)C)n2cc(-c3ccc(COc4c(-c5c(C)c(F)cc6[nH]ncc56)c(C5CC5)cc5c(N6C[C@@H]7C[C@H]6CN7)nc(O[C@H]6CCOC6)nc45)cc3)nn2)cc1 [Example 29] | 15 nM | 42 nM | –
18 | – | – | Cc1ncsc1-c1ccc([C@H](CO)NC(=O)[C@@H]2C[C@@H](O)CN2C(=O)[C@H](C(C)C)n2cc(-c3ccc(COc4c(-c5c(C)c(F)cc6[nH]ncc56)c(C5CC5)cc5c(N6C[C@@H]7C[C@H]6CN7)nc(O[C@H](C)[C@@H](C)O)nc45)cc3)nn2)cc1 (atropisomer, axis not shown) [Example 37] | 18 nM | 19 nM | –
19 | 133 nM | 112 nM | Cc1ncsc1-c1ccc([C@H](CO)NC(=O)[C@@H]2C[C@@H](O)CN2C(=O)[C@H](C2CC2)n2cc(-c3ccc(COc4c(-c5c(C)c(F)cc6[nH]ncc56)c(C5CC5)cc5c(N6C[C@@H]7C[C@H]6CN7)nc(OC6CCOCC6)nc45)cc3)nn2)cc1 [Example 73] | – | – | –
20 | – | – | Cc1ncoc1-c1ccc([C@H](CO)NC(=O)[C@@H]2C[C@@H](O)CN2C(=O)[C@H](C(C)C)n2cc(-c3ccc(COc4c(-c5c(C)c(F)cc6[nH]ncc56)c(C5CC5)cc5c(N6C[C@@H]7C[C@H]6CN7)nc(OC6CCOCC6)nc45)cc3)nn2)cc1 [Example 38] | 28 nM | 27 nM | –
